Results as given in PMC6979384, “Characterization of the plant homeodomain (PHD) reader family for their histone tail interactions” (Epigenetics & Chromatin, 2020).

Columns and labels:
Assay in all cases: Histone peptide microarray
Assay type in all cases: binding, human
[1] = test system: TAF3; conditions: sheet "Array Heatmap"; GST-tagged TAF3; arrays performed twice, total replicate number n = 4
Method in brief: (§1)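 A peptide microarray holding 293 synthetic histone peptides with individual or combinatorial modifications was probed with each GST-PHD protein at 0.5 μM. Values represent mean intensity (±SD) from four replicates.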

[2] = test system: ING5; conditions: sheet "Array Heatmap"; GST-tagged ING5; arrays performed twice, total replicate number n = 4
Method in brief: as §1

[3] = test system: CHD5 (PPCC); conditions: sheet "Array Heatmap"; GST-tagged CHD5 (PPCC); arrays performed twice, total replicate number n = 4
Method in brief: as §1

[4] = test system: TRIM66 (PB); conditions: sheet "Array Heatmap"; GST-tagged TRIM66 (PB); arrays performed twice, total replicate number n = 4
Method in brief: as §1

[5] = test system: KDM5A (1); conditions: sheet "Array Heatmap"; GST-tagged KDM5A (1); arrays performed twice, total replicate number n = 4
Method in brief: as §1

[6] = test system: PHRF1 (RP); conditions: sheet "Array Heatmap"; GST-tagged PHRF1 (RP); arrays performed twice, total replicate number n = 4
Method in brief: as §1

[7] = test system: ING3; conditions: sheet "Array Heatmap"; GST-tagged ING3; arrays performed twice, total replicate number n = 4
Method in brief: as §1

[8] = test system: MLL5; conditions: sheet "Array Heatmap"; GST-tagged MLL5; arrays performed twice, total replicate number n = 4
Method in brief: as §1

[9] = test system: KDM5A (3); conditions: sheet "Array Heatmap"; GST-tagged KDM5A (3); arrays performed twice, total replicate number n = 4
Method in brief: as §1

[10] = test system: BAZ2B; conditions: sheet "Array Heatmap"; GST-tagged BAZ2B; arrays performed twice, total replicate number n = 4
Method in brief: as §1

[11] = test system: KDM5B (3); conditions: sheet "Array Heatmap"; GST-tagged KDM5B (3); arrays performed twice, total replicate number n = 4
Method in brief: as §1

[12] = test system: SP140L; conditions: sheet "Array Heatmap"; GST-tagged SP140L; arrays performed twice, total replicate number n = 4
Method in brief: as §1

[13] = test system: PHF13; conditions: sheet "Array Heatmap"; GST-tagged PHF13; arrays performed twice, total replicate number n = 4
Method in brief: as §1

[14] = test system: ING2; conditions: sheet "Array Heatmap"; GST-tagged ING2; arrays performed twice, total replicate number n = 4
Method in brief: as §1

[15] = test system: DPF2 (PPC2W2); conditions: sheet "Array Heatmap"; GST-tagged DPF2 (PPC2W2); arrays performed twice, total replicate number n = 4
Method in brief: as §1

[16] = test system: KDM7A; conditions: sheet "Array Heatmap"; GST-tagged KDM7A; arrays performed twice, total replicate number n = 4
Method in brief: as §1

[17] = test system: PHF23; conditions: sheet "Array Heatmap"; GST-tagged PHF23; arrays performed twice, total replicate number n = 4
Method in brief: as §1

[18] = test system: CHD5 (PCC); conditions: sheet "Array Heatmap"; GST-tagged CHD5 (PCC); arrays performed twice, total replicate number n = 4
Method in brief: as §1

[19] = test system: KDM5B (1); conditions: sheet "Array Heatmap"; GST-tagged KDM5B (1); arrays performed twice, total replicate number n = 4
Method in brief: as §1

[20] = test system: PHF8; conditions: sheet "Array Heatmap"; GST-tagged PHF8; arrays performed twice, total replicate number n = 4
Method in brief: as §1

[21] = test system: BPTF (PB); conditions: sheet "Array Heatmap"; GST-tagged BPTF (PB); arrays performed twice, total replicate number n = 4
Method in brief: as §1

[22] = test system: CHD4 (PPCC); conditions: sheet "Array Heatmap"; GST-tagged CHD4 (PPCC); arrays performed twice, total replicate number n = 4
Method in brief: as §1

[23] = test system: ING1; conditions: sheet "Array Heatmap"; GST-tagged ING1; arrays performed twice, total replicate number n = 4
Method in brief: as §1

[24] = test system: KDM4C (TTP); conditions: sheet "Array Heatmap"; GST-tagged KDM4C (TTP); arrays performed twice, total replicate number n = 4
Method in brief: as §1

[25] = test system: DIDO1; conditions: sheet "Array Heatmap"; GST-tagged DIDO1; arrays performed twice, total replicate number n = 4
Method in brief: as §1

[26] = test system: AIRE (PP); conditions: sheet "Array Heatmap"; GST-tagged AIRE (PP); arrays performed twice, total replicate number n = 4
Method in brief: as §1

[27] = test system: PHF21A; conditions: sheet "Array Heatmap"; GST-tagged PHF21A; arrays performed twice, total replicate number n = 4
Method in brief: as §1

[28] = test system: MORC3 (CW); conditions: sheet "Array Heatmap"; GST-tagged MORC3 (CW); arrays performed twice, total replicate number n = 4
Method in brief: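 GST-tagged PHD finger readers were expressed, purified and applied at 0.5 μM to a microarray of 293 synthetic histone peptides carrying single or combinatorial PTMs, using an optimized protocol. Binding signals are averages with standard deviation from 4 replicates.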

[29] = test system: RAG2; conditions: sheet "Array Heatmap"; GST-tagged RAG2; arrays performed twice, total replicate number n = 4
Method in brief: as §1

[30] = test system: ING4; conditions: sheet "Array Heatmap"; GST-tagged ING4; arrays performed twice, total replicate number n = 4
Method in brief: as §1

[31] = test system: PHF2; conditions: sheet "Array Heatmap"; GST-tagged PHF2; arrays performed twice, total replicate number n = 4
Method in brief: as §1

For “H3.3K27me3: H3.3 15-34 [Peptide H3.3K27me3]”, the “Array Heatmap signal, TAF3” value [1] was 0.2913, the “Array Heatmap signal, ING5” value [2] was 0.4224 and the “Array Heatmap signal, CHD5 (PPCC)” value [3] was 0.6383. The “Array Heatmap signal, TRIM66 (PB)” value [4] was 0.6617, the “Array Heatmap signal, KDM5A (1)” value [5] was 0.5261 and the “Array Heatmap signal, PHRF1 (RP)” value [6] was 0.5177. For the same substance, the “Array Heatmap signal, ING3” value [7] was 0.5349, the “Array Heatmap signal, MLL5” value [8] was 0.5722 and the “Array Heatmap signal, KDM5A (3)” value [9] was 0.4949. For the same substance, the “Array Heatmap signal, BAZ2B” value [10] was 0.5914, the “Array Heatmap signal, KDM5B (3)” value [11] was 0.5372 and the “Array Heatmap signal, SP140L” value [12] was 0.3923. The “Array Heatmap signal, PHF13” value [13] was 0.7006, the “Array Heatmap signal, ING2” value [14] was 0.6109 and the “Array Heatmap signal, DPF2 (PPC2W2)” value [15] was 0.7311. The “Array Heatmap signal, KDM7A” value [16] was 0.3849, the “Array Heatmap signal, PHF23” value [17] was 0.6091 and the “Array Heatmap signal, CHD5 (PCC)” value [18] was 0.8198. For the same substance, the “Array Heatmap signal, KDM5B (1)” value [19] was 0.6871, the “Array Heatmap signal, PHF8” value [20] was 0.4126 and the “Array Heatmap signal, BPTF (PB)” value [21] was 0.4048. The “Array Heatmap signal, CHD4 (PPCC)” value [22] was 0.5987, the “Array Heatmap signal, ING1” value [23] was 0.5843 and the “Array Heatmap signal, KDM4C (TTP)” value [24] was 0.5632. For the same substance, the “Array Heatmap signal, DIDO1” value [25] was 0.7249, the “Array Heatmap signal, AIRE (PP)” value [26] was 0.536 and the “Array Heatmap signal, PHF21A” value [27] was 0.5192. The “Array Heatmap signal, MORC3 (CW)” value [28] was 0.4234, the “Array Heatmap signal, RAG2” value [29] was 0.2705 and the “Array Heatmap signal, ING4” value [30] was 0.5176. The “Array Heatmap signal, PHF2” value [31] was 0.5285.
